Test results: patent US20250368628A1, “METHODS AND COMPOUNDS FOR MODULATING INHERITED GENETIC DISEASES” (Design Therapeutics, Inc., priority 2022, published 2025)

How the values were obtained:
F35T cells = assay: Foci reduction in FECD (CAG10-Cy3 FISH, foci per nucleus); type: cell-based; settings: F35T cells, 48 h treatment, foci per nucleus; read-out: FECD EC50, 48 h
Experimental: F35T cells were cultured in media containing Opti-MEM (ThermoFisher) supplemented with 8% FBS, 20 μg/mL ascorbic acid, […] CaCl2, 0.08% chondroitin sulfate, 1×Pen/Strep, 100 μg/mL bovine pituitary extract, 5 ng/mL epidermal growth factor, and 20 ng/mL nerve growth factor. Throughout the culture, cells were maintained in an incubator at 37° C. and 5% CO2. Media was refreshed every 48 hours. Once cells reached adequate confluency, they were harvested and seeded in 96 well plates with a density of 5000 cells per well in 200 μL of the supplemented Opti-MEM media. Cells were returned to the incubator and left to settle for 24 hours at 37° C. and 5% CO2. Cells were then treated in 8-point dose response with compounds or negative controls and incubated for 48 hours at 37° C. and 5% CO2. After treatment, cells were fixed with 4% PFA for 20 minutes at room temperature, followed by permeabilization with 70% ethanol. Cells were incubated at −20° C. for a minimum of 1 hour and maximum of 72 hours, after which the ethanol was removed, and cells were washed with PBS. Cells were rehydrated with 30% formamide and 2×SSC buffer for 10 minutes at room temperature. Cells were then incubated overnight at 37° C. in the hybridization solution containing 30% formamide, 2×SSC, 55 mg/mL dextran sulfate, 2.75 mg/mL bovine serum albumin, 0.2 μg/mL Herring sperm DNA, 1% vanadyl-ribonucleoside complex, and 0.05% 10 μM CAG10-Cy3 probe. Cells were washed twice with 30% formamide in 2×SSC, incubating the cells while shaking with the second wash at 37° C. and 200 rpm for 60 minutes. Cells were stained with 5 mg/mL DAPI 1:1000 in PBS, incubating at room temperature for 5 minutes. Cells were then washed with PBS and sealed with adhesive foil, with each well containing a final volume of 150 μL PBS. Cells were imaged on a Cytation 5 and analyzed on a foci per nucleus basis.

[1] = system: Myotonic Dystrophy 1 affected patient fibroblasts (Coriel GM04602; 1600 CTG repeats); assay: DM1 foci reduction assay (EC50 assay; CAG10-Cy3 FISH, foci per nucleus); type: cell-based; settings: Homo sapiens, Fibroblast; DM1 patient fibroblasts, 48 h treatment, foci per nucleus; read-out: DM1 EC50, 48 h
Procedure, shortened: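 Foci per nucleus counted by 20× imaging of 4 areas per well, after overnight FISH with 5 nM CAG10-Cy3 and DAPI staining of fixed, permeabilized cells. DM1 fibroblasts (GM04602, 1600 CTG) were dosed 48 h at 37 °C, 8 points, 3-fold dilutions, 3 μM top concentration.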

Row | SMILES | EC50 (F35T cells) [nM] | EC50 [1] [nM]
1 | CC(Nc1cc(C(=O)NCCC(=O)Nc2cn(C)c(C(=O)Nc3cc(C(=O)NCCCC(=O)Nc4cn(C)c(C(=O)Nc5cc(C(=O)NCCC(=O)Nc6cn(C)c(C(=O)NCCC(=O)NCCCCN=[N+]=[N-])n6)n(C)c5)n4)n(C)c3)n2)n(C)c1)c1nccn1C (centres unmarked) [Compound B-75] | > 1000 | 500 to 1000
2 | CC(=O)NCCOCCOCCOCCOCCOCCNC(=O)CCNC(=O)c1nc(NC(=O)c2cc(NC(=O)CCNC(=O)c3nc(NC(=O)CCCNC(=O)c4cc(NC(=O)c5nc(NC(=O)CCNC(=O)c6cc(NC(C)c7nccn7C)cn6C)cn5C)cn4C)cn3C)cn2C)cn1C (centres unmarked) [Compound B-76] | 100 to 500 | 100 to 500
3 | CC(Nc1cc(C(=O)NCCC(=O)Nc2cn(C)c(C(=O)Nc3cc(C(=O)NCCCC(=O)Nc4cn(C)c(C(=O)NCCC(=O)Nc5cc(C(=O)Nc6cn(C)c(C(=O)NCCC(=O)NCCOCCOCCOCCOCCOCCN)n6)n(C)c5)n4)n(C)c3)n2)n(C)c1)c1nccn1C (centres unmarked) [Compound B-77] | 100 to 500 | 100 to 500
4 | COCCOCCOCCOCCOCCOCCNC(=O)CCNC(=O)c1nc(NC(=O)c2cc(NC(=O)CCNC(=O)c3nc(NC(=O)CCCNC(=O)c4cc(NC(=O)c5nc(NC(=O)CCNC(=O)c6cc(NC(C)c7nccn7C)cn6C)cn5C)cn4C)cn3C)cn2C)cn1C (centres unmarked) [Compound B-78] | 100 to 500 | 100 to 500
5 | COCCOCCOCCOCCN(CCOCCOCCOCCOC)C(=O)CCNC(=O)c1nc(NC(=O)c2cc(NC(=O)CCNC(=O)c3nc(NC(=O)CCCNC(=O)c4cc(NC(=O)c5nc(NC(=O)CCNC(=O)c6cc(NC(C)c7nccn7C)cn6C)cn5C)cn4C)cn3C)cn2C)cn1C (centres unmarked) [Compound B-79] | > 1000 | 100 to 500
6 | CC(Nc1cc(C(=O)NCCC(=O)Nc2cn(C)c(C(=O)Nc3cc(C(=O)NCCCC(=O)Nc4cn(C)c(C(=O)NCCC(=O)Nc5cc(C(=O)Nc6cn(C)c(C(=O)NCCC(=O)NCCOCCOCCOCCOCCOCCOCCOCCOCCOCCOCCN)n6)n(C)c5)n4)n(C)c3)n2)n(C)c1)c1nccn1C (centres unmarked) [Compound B-81] | > 1000 | > 1000
7 | CC(=O)NCCOCCOCCOCCOCCOCCOCCOCCOCCOCCOCCNC(=O)CCNC(=O)c1nc(NC(=O)c2cc(NC(=O)CCNC(=O)c3nc(NC(=O)CCCNC(=O)c4cc(NC(=O)c5nc(NC(=O)CCNC(=O)c6cc(NC(C)c7nccn7C)cn6C)cn5C)cn4C)cn3C)cn2C)cn1C (centres unmarked) [Compound B-82] | 100 to 500 | 100 to 500
8 | CCN(CC)CCCC[C@H](NC(=O)C(C)(C)C)C(=O)NCCOCCOCCOCCOCCOCCNC(=O)CCNC(=O)c1nc(NC(=O)c2cc(NC(=O)CCNC(=O)c3nc(NC(=O)CCCNC(=O)c4cc(NC(=O)c5nc(NC(=O)CCNC(=O)c6cc(NC(=O)c7nccn7C)cn6C)cn5C)cn4C)cn3C)cn2C)cn1C [Compound B-90] | > 1000 | 500 to 1000
9 | CCN(CC)CCCC[C@H](NC(=O)c1ccc(C(C)(C)C)cc1)C(=O)NCCOCCOCCOCCOCCOCCNC(=O)CCNC(=O)c1nc(NC(=O)c2cc(NC(=O)CCNC(=O)c3nc(NC(=O)CCCNC(=O)c4cc(NC(=O)c5nc(NC(=O)CCNC(=O)c6cc(NC(=O)c7nccn7C)cn6C)cn5C)cn4C)cn3C)cn2C)cn1C [Compound B-92] | 500 to 1000 | 100 to 500
10 | CCN(CC)CCCC[C@H](NC(=O)c1cccnc1)C(=O)NCCOCCOCCOCCOCCOCCNC(=O)CCNC(=O)c1nc(NC(=O)c2cc(NC(=O)CCNC(=O)c3nc(NC(=O)CCCNC(=O)c4cc(NC(=O)c5nc(NC(=O)CCNC(=O)c6cc(NC(=O)c7nccn7C)cn6C)cn5C)cn4C)cn3C)cn2C)cn1C [Compound B-94] | 100 to 500 | 500 to 1000
11 | CCN(CC)CCCC[C@H](NC(=O)C1CCNCC1)C(=O)NCCOCCOCCOCCOCCOCCNC(=O)CCNC(=O)c1nc(NC(=O)c2cc(NC(=O)CCNC(=O)c3nc(NC(=O)CCCNC(=O)c4cc(NC(=O)c5nc(NC(=O)CCNC(=O)c6cc(NC(=O)c7nccn7C)cn6C)cn5C)cn4C)cn3C)cn2C)cn1C [Compound B-95] | > 1000 | 500 to 1000
12 | Cn1cc(NC(=O)c2nc(NC(=O)CCNC(=O)c3cc(NC(=O)c4nccn4C)cn3C)cn2C)cc1C(=O)NCCCC(=O)Nc1cn(C)c(C(=O)NCCC(=O)Nc2cc(C(=O)Nc3cn(C)c(C(=O)NCCCO)n3)n(C)c2)n1 [Compound B-105] | 100 to 500 | 100 to 500
13 | Cn1cc(NC(=O)c2nc(NC(=O)CCNC(=O)c3cc(NC(=O)c4nccn4C)cn3C)cn2C)cc1C(=O)NCCCC(=O)Nc1cn(C)c(C(=O)NCCC(=O)Nc2cc(C(=O)Nc3cn(C)c(C(=O)NCCOCCOCCOCCN4CCC(C#CC#CC5CCNCC5)CC4)n3)n(C)c2)n1 [Compound B-107] | 100 to 500 | 100 to 500
14 | CN(C)CCCNC(=O)c1nc(NC(=O)c2cc(NC(=O)CCNC(=O)c3nc(NC(=O)CCCNC(=O)c4cc(NC(=O)c5nc(NC(=O)CCNC(=O)c6cc(NC(=O)c7nccn7C)cn6C)cn5C)cn4C)cn3C)cn2C)cn1C [Compound B-108] | 100 to 500 | 100 to 500
15 | CN(CCCNC(=O)c1cccc(C(=O)O)c1)CCCNC(=O)c1nc(NC(=O)c2cc(NC(=O)CCNC(=O)c3nc(NC(=O)CCCNC(=O)c4cc(NC(=O)c5nc(NC(=O)CCNC(=O)c6cc(NC(=O)c7nccn7C)cn6C)cn5C)cn4C)cn3C)cn2C)cn1C [Compound B-109] | 100 to 500 | 100 to 500
16 | CC(Nc1cc(C(=O)NCCC(=O)Nc2cn(C)c(C(=O)Nc3cc(C(=O)NCCCC(=O)Nc4cn(C)c(C(=O)Nc5cc(C(=O)NCCC(=O)Nc6cn(C)c(C(=O)NCCC(=O)NCCOCCOCCOCCOCCOCCNC(=O)[C@H](CO)NC(=O)OC(C)(C)C)n6)n(C)c5)n4)n(C)c3)n2)n(C)c1)c1nccn1C (some centres unmarked) [Compound B-110] | 100 to 500 | 500 to 1000
17 | CC(Nc1cc(C(=O)NCCC(=O)Nc2cn(C)c(C(=O)Nc3cc(C(=O)NCCCC(=O)Nc4cn(C)c(C(=O)Nc5cc(C(=O)NCCC(=O)Nc6cn(C)c(C(=O)NCCC(=O)NCCOCCOCCOCCOCCOCCNC(=O)[C@@H](N)CO)n6)n(C)c5)n4)n(C)c3)n2)n(C)c1)c1nccn1C (some centres unmarked) [Compound B-111] | > 1000 | 500 to 1000
18 | Cn1cc(NC(=O)c2nc(NC(=O)CCNC(=O)c3cc(NC(=O)c4nccn4C)cn3C)cn2C)cc1C(=O)NCCCC(=O)Nc1cn(C)c(C(=O)NCCC(=O)Nc2cc(C(=O)Nc3cn(C)c(C(=O)NCCC(=O)NCCCCC#N)n3)n(C)c2)n1 [Compound B-113] | < 100 | < 100
19 | CC(=O)N1CCC(CN2CCN(C(=O)CCNC(=O)c3nc(NC(=O)c4cc(NC(=O)CCNC(=O)c5nc(NC(=O)CCCNC(=O)c6cc(NC(=O)c7nc(NC(=O)CCNC(=O)c8cc(NC(=O)c9nccn9C)cn8C)cn7C)cn6C)cn5C)cn4C)cn3C)CC2)CC1 [Compound B-115] | 500 to 1000 | 100 to 500
20 | Cn1cc(NC(=O)c2nc(NC(=O)CCNC(=O)c3cc(NC(=O)c4nccn4C)cn3C)cn2C)cc1C(=O)NCCCC(=O)Nc1cn(C)c(C(=O)NCCC(=O)Nc2cc(C(=O)Nc3cn(C)c(C(=O)NCCC(=O)N4CCN(C5CCNCC5)CC4)n3)n(C)c2)n1 [Compound B-117] | 500 to 1000 | 100 to 500
21 | CC(=O)N1CCC(N2CCN(C(=O)CCNC(=O)c3nc(NC(=O)c4cc(NC(=O)CCNC(=O)c5nc(NC(=O)CCCNC(=O)c6cc(NC(=O)c7nc(NC(=O)CCNC(=O)c8cc(NC(=O)c9nccn9C)cn8C)cn7C)cn6C)cn5C)cn4C)cn3C)CC2)CC1 [Compound B-119] | 500 to 1000 | 100 to 500
22 | CN1CCC(N2CCN(C(=O)CCNC(=O)c3nc(NC(=O)c4cc(NC(=O)CCNC(=O)c5nc(NC(=O)CCCNC(=O)c6cc(NC(=O)c7nc(NC(=O)CCNC(=O)c8cc(NC(=O)c9nccn9C)cn8C)cn7C)cn6C)cn5C)cn4C)cn3C)CC2)CC1 [Compound B-120] | > 1000 | 500 to 1000
23 | CC(=O)N1CCC(C#CC#CC2CCN(CCOCCOCCOCCNC(=O)CCNC(=O)c3nc(NC(=O)c4cc(NC(=O)CCNC(=O)c5nc(NC(=O)CCCNC(=O)c6cc(NC(=O)c7nc(NC(=O)CCNC(=O)c8cc(NC(=O)c9nccn9C)cn8C)cn7C)cn6C)cn5C)cn4C)cn3C)CC2)CC1 [Compound B-121] | 100 to 500 | 100 to 500
24 | CC(C)C(=O)N1CCC(C#CC#CC2CCN(CCOCCOCCOCCNC(=O)CCNC(=O)c3nc(NC(=O)c4cc(NC(=O)CCNC(=O)c5nc(NC(=O)CCCNC(=O)c6cc(NC(=O)c7nc(NC(=O)CCNC(=O)c8cc(NC(=O)c9nccn9C)cn8C)cn7C)cn6C)cn5C)cn4C)cn3C)CC2)CC1 [Compound B-122] | 100 to 500 | 100 to 500
25 | Cn1cc(NC(=O)c2nc(NC(=O)CCNC(=O)c3cc(NC(=O)c4nccn4C)cn3C)cn2C)cc1C(=O)NCCCC(=O)Nc1cn(C)c(C(=O)NCCC(=O)Nc2cc(C(=O)Nc3cn(C)c(C(=O)NCCC(=O)NCCOCCOCCOCCN4CCC(C#CC#CC5CCN(C(=O)C(C)(C)C)CC5)CC4)n3)n(C)c2)n1 [Compound B-123] | 100 to 500 | < 100
